Measured values reported in patent US20190202836A1, “SELECTIVE DUAL INHIBITORS OF PI3 DELTA AND GAMMA PROTEIN KINASES” (Rhizen Pharmaceuticals SA, priority 2014, published 2019).

How the values were obtained:
PI3K delta = target: T1, PI3K delta (Homo sapiens, UniProt O00329); experiment: Assay 4A1: Anti-IgM induced B-cell proliferation; format: cell-based; conditions: isolated human B-cells, 72 hours; read-out: Cellular IC50 PI3K delta (anti-IgM induced human B-cell proliferation)
T1 construct: endogenous in cells; host or cells: isolated human B-cells
T1 sequence (O00329 whole entry): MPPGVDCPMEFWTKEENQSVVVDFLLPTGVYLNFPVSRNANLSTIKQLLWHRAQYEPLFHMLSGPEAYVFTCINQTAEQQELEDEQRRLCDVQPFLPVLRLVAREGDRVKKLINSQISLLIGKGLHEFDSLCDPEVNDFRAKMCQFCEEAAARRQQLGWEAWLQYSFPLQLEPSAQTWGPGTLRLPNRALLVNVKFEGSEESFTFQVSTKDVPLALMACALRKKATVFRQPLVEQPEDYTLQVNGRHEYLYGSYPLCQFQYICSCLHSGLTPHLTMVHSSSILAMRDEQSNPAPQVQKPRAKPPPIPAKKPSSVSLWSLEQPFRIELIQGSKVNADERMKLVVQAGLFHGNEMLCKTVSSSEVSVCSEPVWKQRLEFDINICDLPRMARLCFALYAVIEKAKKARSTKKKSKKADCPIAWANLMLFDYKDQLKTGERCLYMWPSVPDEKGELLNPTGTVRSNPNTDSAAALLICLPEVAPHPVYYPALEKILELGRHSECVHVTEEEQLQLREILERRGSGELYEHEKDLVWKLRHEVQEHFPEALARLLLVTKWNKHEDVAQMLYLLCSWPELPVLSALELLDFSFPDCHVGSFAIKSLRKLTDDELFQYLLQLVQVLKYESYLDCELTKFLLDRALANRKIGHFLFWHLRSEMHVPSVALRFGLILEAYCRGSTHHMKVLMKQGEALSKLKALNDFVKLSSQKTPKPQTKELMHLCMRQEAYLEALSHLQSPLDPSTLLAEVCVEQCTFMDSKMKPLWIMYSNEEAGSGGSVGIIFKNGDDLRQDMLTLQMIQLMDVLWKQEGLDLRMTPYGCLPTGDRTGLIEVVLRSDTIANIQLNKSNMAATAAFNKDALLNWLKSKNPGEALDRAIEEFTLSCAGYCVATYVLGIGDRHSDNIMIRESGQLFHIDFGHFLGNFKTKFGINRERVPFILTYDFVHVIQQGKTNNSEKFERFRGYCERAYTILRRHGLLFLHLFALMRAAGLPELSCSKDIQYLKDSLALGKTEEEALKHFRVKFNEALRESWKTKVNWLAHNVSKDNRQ
T1 sequence (P27986 whole entry partner): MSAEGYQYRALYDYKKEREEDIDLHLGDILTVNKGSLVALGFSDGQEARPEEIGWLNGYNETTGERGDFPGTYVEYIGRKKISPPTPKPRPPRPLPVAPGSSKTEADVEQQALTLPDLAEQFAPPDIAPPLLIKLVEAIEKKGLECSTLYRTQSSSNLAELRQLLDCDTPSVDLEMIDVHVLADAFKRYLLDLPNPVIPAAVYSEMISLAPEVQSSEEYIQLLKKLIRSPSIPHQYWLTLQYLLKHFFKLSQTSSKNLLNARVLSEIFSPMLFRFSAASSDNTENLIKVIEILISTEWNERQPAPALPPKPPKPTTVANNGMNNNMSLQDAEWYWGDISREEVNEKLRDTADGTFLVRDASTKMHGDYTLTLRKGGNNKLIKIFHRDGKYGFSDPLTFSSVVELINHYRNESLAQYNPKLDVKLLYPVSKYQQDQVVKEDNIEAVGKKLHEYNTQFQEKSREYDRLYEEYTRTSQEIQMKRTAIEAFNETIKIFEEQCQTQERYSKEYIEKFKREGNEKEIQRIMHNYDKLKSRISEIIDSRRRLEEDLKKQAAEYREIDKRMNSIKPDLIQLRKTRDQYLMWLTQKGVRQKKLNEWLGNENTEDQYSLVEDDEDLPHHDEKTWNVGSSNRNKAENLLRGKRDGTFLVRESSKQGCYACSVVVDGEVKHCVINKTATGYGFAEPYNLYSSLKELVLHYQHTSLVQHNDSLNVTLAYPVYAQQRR
Procedure: The objective of this study was to assess the inhibitory potential of Compound A1 on anti-IgM induced human B-cell proliferation.
Isolated B-cells were re-suspended to 1.0×10^6 cells per ml. 100 μl of cell suspension was added to each well of a 96-well plate. Triplicates were maintained.
50 μl of drug dilution was added and mixed well. A DMSO blank and inducer blank were maintained.
The treated plate was incubated for 30 minutes at 37° C., 5% CO2 and then 50 μl of 4× inducer was added and mixed by pipetting.
The plate was incubated at 37° C., 5% CO2 for 72 hours.
Media was aspirated and 150 μl of DMSO was added to dissolve the formazan crystals.
Absorbance was read at A560 and A640 nm.

[1] = system: pAKT in T-lymphoma (MOLT-4, Jurkat, CCRF-CEM and Hut-78) cell lines; experiment: Assay 3: Inhibition of AKT phosphorylation in leukemic cell lines; format: cell-based; conditions: 48 hours, Western Blotting, range over the cell lines, read-out: EC50, reduction in pAKT expression
Procedure: MOLT-4, Jurkat, CCRF-CEM, and Hut-78 cells were incubated with desired concentrations of compound for 48 hours. Cells were lysed and pAKT determined by Western Blotting. Bands were quantified using ImageJ and normalized to actin.

Female Wistar rats = experiment: Assay 8: Lipopolysaccharide-induced rat air pouch model of inflammation; format: in vivo; conditions: Neutrophil, oral, 1, 3 and 10 mg/kg, pouch fluid 6 h after LPS, read-out: ED50, reduction of neutrophil migration into the rat air pouch
Procedure: Female Wistar rats (175-200 g) were acclimatized for seven days prior to the start of the experiment. Animals were randomly distributed to various groups based on their body weights. Animals were anaesthetised with ether and subcutaneous air pouches were made by injecting 20 ml of sterile air under the skin in the intra-scapular area (day 0) and maintained with a second 10 ml injection of sterile-filtered air on day 4. On day 6, oral treatment was commenced 1 hour prior to induction of inflammation by s.c. injection of LPS solution on day 6. A volume of 5 ml of LPS solution dissolved in sterile saline (100 μg/kg) was injected into each pouch. Samples of pouch fluid were taken at 6 h after administration of LPS by flushing the pouch with 5 ml of sterile saline and withdrawing 4 ml of fluid. The number of leukocytes present in pouch fluid was determined microscopically using a haemocytometer. Differential cell content was determined by microscopic examination of fluid smears stained with Diff-Quik.

PI3Kβ = PI3Kβ (Homo sapiens, UniProt P42338); experiment: Assay 1: Fluorescent (HTRF) determination of PI3 kinase enzyme activity, PI3Kβ; format: biochemical
Chain of PI3Kβ (P42338 whole entry, canonical isoform): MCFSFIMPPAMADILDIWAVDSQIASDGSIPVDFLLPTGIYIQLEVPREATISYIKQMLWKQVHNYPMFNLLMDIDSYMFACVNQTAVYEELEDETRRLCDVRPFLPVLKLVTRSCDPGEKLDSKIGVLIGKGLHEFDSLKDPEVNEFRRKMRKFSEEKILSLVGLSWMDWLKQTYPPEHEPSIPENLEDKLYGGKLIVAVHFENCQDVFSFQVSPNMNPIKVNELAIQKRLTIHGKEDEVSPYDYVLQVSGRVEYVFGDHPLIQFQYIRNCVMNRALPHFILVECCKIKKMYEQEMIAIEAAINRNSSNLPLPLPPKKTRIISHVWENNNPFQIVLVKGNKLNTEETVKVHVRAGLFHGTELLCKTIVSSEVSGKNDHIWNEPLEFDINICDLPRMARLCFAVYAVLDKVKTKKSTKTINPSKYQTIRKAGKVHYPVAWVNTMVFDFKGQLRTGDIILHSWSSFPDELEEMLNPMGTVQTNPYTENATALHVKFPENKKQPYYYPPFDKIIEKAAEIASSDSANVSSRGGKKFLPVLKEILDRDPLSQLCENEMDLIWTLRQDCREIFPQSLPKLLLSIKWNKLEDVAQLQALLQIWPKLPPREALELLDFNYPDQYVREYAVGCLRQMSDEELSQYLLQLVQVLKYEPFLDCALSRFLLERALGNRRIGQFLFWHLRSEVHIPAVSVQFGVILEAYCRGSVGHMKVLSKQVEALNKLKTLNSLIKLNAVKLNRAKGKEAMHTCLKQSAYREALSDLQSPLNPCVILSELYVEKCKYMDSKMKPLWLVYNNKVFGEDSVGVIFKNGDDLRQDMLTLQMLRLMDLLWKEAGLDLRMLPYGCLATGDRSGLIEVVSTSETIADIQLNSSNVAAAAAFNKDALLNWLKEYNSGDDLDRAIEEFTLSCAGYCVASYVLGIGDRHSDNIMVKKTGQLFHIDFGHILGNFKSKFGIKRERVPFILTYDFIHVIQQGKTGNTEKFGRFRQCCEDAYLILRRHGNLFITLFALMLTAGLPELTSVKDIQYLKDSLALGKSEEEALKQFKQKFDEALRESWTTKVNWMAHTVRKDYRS
Chain of PI3Kβ (P27986 whole entry partner, canonical isoform): as the sequence (P27986 whole entry partner) above
Excerpt: Phosphoinositide 3 kinases (PI3K) belong to a class of lipid kinases that play a critical role in the regulation of several key cellular processes. The PI3K are capable of phosphorylating the 3-hydroxy position of phosphoinositols thereby generating second messengers involved in downstream signaling events. The homogenous time resolved fluorescence (HTRF) assay allows detection of 3,4,5-triphosphate (PIPS) formed as a result of phosphorylation of phosphotidylinositol 4,5-biphosphate (PIP2) by PI3K isoforms such as α, β, γ or δ.
PI3K isoform activity for α, β, γ or δ was determined using a PI3K human HTRF™ Assay Kit (Millipore, Billerica, Mass.) with modifications. All incubations were carried out at room temperature. 0.5 μl of 40× inhibitor (in 100% DMSO) or 100% DMSO were added to each well of a 384-well white plate (Greiner Bio-One, Monroe, N.C.) containing 14.5 μl 1× reaction buffer/PIP2 (10 mM MgCl2, 5 mM DTT, 1.38 μM PIP2) mix with or without enzyme, followed by 5 μl/well of 400 μM ATP and incubated for an additional 30 minutes. The reaction was terminated by adding 5 μl/well stop solution (Millipore, Billerica, Mass.). 5 μl of detection mix (Millipore, Billerica, Mass.) was then added to each well and incubated for 6-18 hours in the dark. HRTF ratio was measured on a microplate reader (BMG Labtech., Germany) at an excitation wavelength of 337 nm and emission wavelengths of 665 and 615 nm with an integration time of 400 msec counting delay of 50 msec.

PI3K beta = target: T2, PI3K beta (Mus musculus, UniProt Q8BTI9); experiment: Assay 4A2: LPA induced AktS473 phosphorylation in 3T3 fibroblasts; format: cell-based; conditions: LPA 5 μM, read-out: Cellular IC50 PI3K beta (LPA induced pAKT in 3T3 fibroblasts)
T2 construct: endogenous in cells; host or cells: 3T3 fibroblasts
T2 sequence (Q8BTI9 whole entry): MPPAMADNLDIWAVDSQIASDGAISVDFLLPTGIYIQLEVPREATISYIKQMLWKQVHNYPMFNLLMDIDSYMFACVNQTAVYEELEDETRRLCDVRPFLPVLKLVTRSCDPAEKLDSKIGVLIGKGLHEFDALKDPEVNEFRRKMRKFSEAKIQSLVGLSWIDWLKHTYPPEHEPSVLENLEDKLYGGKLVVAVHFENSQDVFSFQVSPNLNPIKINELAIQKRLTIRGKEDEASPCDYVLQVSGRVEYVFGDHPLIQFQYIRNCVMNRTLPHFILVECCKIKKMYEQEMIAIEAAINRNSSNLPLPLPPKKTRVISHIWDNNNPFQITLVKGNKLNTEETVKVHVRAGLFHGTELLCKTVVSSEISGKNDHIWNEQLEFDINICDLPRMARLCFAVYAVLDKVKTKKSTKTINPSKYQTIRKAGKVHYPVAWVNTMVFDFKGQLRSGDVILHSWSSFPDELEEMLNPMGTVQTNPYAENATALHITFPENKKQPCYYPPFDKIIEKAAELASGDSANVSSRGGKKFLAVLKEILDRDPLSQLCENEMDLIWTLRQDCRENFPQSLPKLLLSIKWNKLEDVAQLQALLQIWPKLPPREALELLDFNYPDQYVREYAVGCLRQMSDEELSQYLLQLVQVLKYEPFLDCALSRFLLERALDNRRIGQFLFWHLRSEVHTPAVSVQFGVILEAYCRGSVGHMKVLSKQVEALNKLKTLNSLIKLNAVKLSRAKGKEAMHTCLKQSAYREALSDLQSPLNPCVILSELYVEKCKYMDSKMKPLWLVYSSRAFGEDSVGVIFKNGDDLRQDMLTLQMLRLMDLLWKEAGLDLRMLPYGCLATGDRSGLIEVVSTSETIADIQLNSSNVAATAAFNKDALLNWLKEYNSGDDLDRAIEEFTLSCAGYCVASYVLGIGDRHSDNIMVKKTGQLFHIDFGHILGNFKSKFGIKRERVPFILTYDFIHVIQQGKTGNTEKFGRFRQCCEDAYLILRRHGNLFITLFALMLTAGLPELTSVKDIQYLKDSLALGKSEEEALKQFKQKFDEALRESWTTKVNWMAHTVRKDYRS
T2 sequence (P26450 whole entry partner): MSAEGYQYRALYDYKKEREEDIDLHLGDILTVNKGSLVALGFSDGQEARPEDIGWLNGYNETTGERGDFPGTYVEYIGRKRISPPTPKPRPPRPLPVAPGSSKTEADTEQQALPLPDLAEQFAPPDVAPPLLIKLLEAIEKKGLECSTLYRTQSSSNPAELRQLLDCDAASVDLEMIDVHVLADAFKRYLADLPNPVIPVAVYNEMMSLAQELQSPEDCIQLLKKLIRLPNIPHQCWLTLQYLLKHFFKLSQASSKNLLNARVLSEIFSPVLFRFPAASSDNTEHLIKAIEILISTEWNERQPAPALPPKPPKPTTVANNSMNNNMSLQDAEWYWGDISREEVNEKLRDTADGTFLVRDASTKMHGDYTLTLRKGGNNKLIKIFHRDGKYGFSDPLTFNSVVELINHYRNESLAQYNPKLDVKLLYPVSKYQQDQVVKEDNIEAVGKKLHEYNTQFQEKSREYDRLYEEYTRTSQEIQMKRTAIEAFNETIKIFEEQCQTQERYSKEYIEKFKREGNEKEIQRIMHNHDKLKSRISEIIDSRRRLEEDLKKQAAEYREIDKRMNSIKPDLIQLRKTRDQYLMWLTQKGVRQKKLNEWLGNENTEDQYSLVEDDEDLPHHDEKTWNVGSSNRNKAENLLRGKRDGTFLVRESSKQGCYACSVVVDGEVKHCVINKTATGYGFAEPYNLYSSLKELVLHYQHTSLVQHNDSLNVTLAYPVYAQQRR
Procedure: The objective of this study was to determine the effect of Compound A1 on PI3Kβ kinase mediated LPA induced AktS473 phosphorylation in 3T3 fibroblasts.
3T3 cells were treated with desired concentrations of the test compound for 15 minutes. 1 ml of 2× LPA was added such that the final concentration was 5 μM and incubated for 5 minutes.
Media was discarded and washed with 1 ml of ice-cold 1× PBS.
250 μl of cell lysis buffer was added and incubated on ice for 30 minutes.
Samples were centrifuged and supernatant was maintained at −80° C. until analysis.
Samples were analyzed by Western Blotting using pAKT (S473) as the primary and anti-rabbit IgG-HRP as a secondary antibody.
Intensity of the bands was determined using ImageJ 1.42q (NIH, USA) and normalized to Actin (loading control). Data was plotted using GraphPad Prism (Version 5.02).

[2] = Metabolic stability in dog liver microsomes; format: in vitro ADME
[3] = Oral pharmacokinetics in mice; format: in vivo; conditions: mouse, plasma, 10 mg/kg

IC50 (PI3K delta): 11 nM
EC50 [1]: 20 to 1600 nM
inhibition at 1 µM (PI3Kβ): 46.8%
IC50 (PI3Kβ; HTRF enzyme assay): 1360 nM
Fold-Selectivity PI3Kβ (PI3Kβ; selectivity profile, enzyme IC50): > 45 fold
IC50 (PI3K beta): 1320 nM
Metabolic stability in liver microsomes (percent parent compound remaining), Dog [2]: 83.5%
AUC(0-t) [3]: 7.49 µM·h
Cmax [3]: 3.78 µM
Tmax [3]: 30 min
half-life [3]: 87 min
SMILES: COc1ccc(-c2nn([C@@H](C)c3oc4cccc(F)c4c(=O)c3-c3cccc(F)c3)c3ncnc(N)c23)cc1NS(C)(=O)=O [Compound A1, (S)—N-(5-(4-amino-1-(1-(5-fluoro-3-(3-fluorophenyl)-4-oxo-4H-chromen-2-yl)ethyl)-1H-pyrazolo[3,4-d]pyrimidin-3-yl)-2-methoxyphenyl)methanesulfonamide]
ED50 (Female Wistar rats): 2.65 mg/kg
